According to patent publication US8563729B2, “Thienopyridone derivatives as AMP-activated protein kinase (AMPK) activators” (Merck Patent GmbH, priority 2008, dated 2013):

Columns and labels:
[1] = biological target: T1, AMPK protein (recombinant α1β1γ2) (Homo sapiens, UniProt Q13131+Q9Y478); experiment: AMPK enzymatic activity (Delfia, AMARA peptide substrate); format: biochemical; conditions: compound 30 μM vs AMP 30 μM; 125 μM ATP; ratio 90% or higher = direct activator
T1 construct: made in house; host or cells: E. coli
T1 sequence (Q13131 whole entry): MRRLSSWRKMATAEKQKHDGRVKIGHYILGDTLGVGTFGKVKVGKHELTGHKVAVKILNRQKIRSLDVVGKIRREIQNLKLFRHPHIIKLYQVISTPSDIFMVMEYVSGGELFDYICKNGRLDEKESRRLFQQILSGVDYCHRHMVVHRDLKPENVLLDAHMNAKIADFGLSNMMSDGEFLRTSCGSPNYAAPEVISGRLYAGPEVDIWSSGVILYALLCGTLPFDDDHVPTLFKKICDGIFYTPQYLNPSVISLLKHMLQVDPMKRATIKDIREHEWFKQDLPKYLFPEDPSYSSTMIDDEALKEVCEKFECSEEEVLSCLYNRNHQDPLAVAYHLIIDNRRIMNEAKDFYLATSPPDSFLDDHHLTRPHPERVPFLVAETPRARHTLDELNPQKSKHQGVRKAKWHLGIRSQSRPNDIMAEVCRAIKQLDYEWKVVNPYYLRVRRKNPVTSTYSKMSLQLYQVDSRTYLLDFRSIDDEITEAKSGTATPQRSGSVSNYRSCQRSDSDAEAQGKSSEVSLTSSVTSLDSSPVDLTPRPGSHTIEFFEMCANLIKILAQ
T1 sequence (Q9Y478 whole entry): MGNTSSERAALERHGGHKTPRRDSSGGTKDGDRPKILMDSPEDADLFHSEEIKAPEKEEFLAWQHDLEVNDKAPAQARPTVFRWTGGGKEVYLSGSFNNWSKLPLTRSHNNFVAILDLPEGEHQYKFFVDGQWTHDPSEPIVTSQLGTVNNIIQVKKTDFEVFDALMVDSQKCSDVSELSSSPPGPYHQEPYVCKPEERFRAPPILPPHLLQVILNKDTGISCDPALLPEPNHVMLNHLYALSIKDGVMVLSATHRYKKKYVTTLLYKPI
T1 sequence (Q9UGJ0 whole entry partner): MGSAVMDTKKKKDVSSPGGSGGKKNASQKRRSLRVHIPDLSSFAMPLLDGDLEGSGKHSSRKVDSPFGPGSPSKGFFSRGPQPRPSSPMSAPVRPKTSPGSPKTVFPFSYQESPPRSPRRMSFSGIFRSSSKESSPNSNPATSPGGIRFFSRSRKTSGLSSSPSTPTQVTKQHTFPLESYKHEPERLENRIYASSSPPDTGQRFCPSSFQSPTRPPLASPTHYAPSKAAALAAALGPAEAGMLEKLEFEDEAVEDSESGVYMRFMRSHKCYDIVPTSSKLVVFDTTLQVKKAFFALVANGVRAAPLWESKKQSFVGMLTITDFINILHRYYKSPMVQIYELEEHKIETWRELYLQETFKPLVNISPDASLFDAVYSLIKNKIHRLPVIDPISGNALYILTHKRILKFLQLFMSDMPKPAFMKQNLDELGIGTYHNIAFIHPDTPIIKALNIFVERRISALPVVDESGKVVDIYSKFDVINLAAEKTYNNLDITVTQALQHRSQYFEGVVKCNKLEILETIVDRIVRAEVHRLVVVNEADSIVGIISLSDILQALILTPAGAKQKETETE
Summary of the method: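 Human α1β1γ2 AMPK expressed in E. coli, reactivated in vitro by LKB1, assayed in 50 mM Hepes pH 7.4 with 125 μM ATP and AMARA peptide for 30 min at room temperature; phosphorylation detected by Delfia anti-phosphoserine antibody. Activity = % of basal control at 30 μM compound relative to that of 30 μM AMP.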

H-2 Kb cells = experiment: Glucose uptake in H-2 Kb cells (in vitro cellular test); format: cell-based, mouse; conditions: H-2 Kb cells differentiated in muscle, 4 hours incubation, 2-deoxy-D-[1,2 3H] glucose uptake 10 min
Method: Glucose Uptake in H-2 Kb Cells (In Vitro Cellular Test)
The following cellular test allows the determination of the effect of AMPK activators such as compounds of formula (I) onto glucose uptake in a muscle cellular model.
H-1-2 Kb cells derived from heterozygous H-2 Kb tsA58 transgenic mouse were grown in 24-well in plates coated with matrigel and were cultured at 33° C. for 4 days under permissive conditions, as described previously by Fryer et al. (Diabetes 49 (12): 1978, 2000).
For differentiation in muscle, cells were switched to non-permissive culture conditions (37° C. in the absence of interferon-γ). After 3 days, cells were incubated for 4 hours in DMEM 1 g/l glucose culture medium containing different concentrations of the tested molecules. Then glucose uptake was measured by incubating the cells for 10 min with radiolabelled 2-deoxy-D-[1,2 ^3H] glucose. Glucose uptake was terminated by rapidly washing the plates 2 times with ice-cold NaCl 0.9%. The cells were then solubilized in 0.1N NaOH for 30 min. Radioactivity was determined by liquid scintillation counting.
N°: Number of the molecule
Activity (table III): Concentration of compound (I) for a glucose uptake equal or higher to glucose uptake induced by insulin (170 nM)
^++ or **concentration of compound (I) ≦10 micro Molar
^+ or *concentration of compound (I) >10 micro Molar

Row | SMILES | activity: Ratio between the % of control (basal activity) of compound of formula (I) at 30 μM and the % of control (basal activity) of AMP at 30 μM [1] [%] | Activity (table III): Concentration of compound (I) for a glucose uptake equal or higher to glucose uptake induced by insulin (170 nM) (H-2 Kb cells)
1 | Cc1ccc(-c2csc3[nH]c(=O)c(-c4ccccc4)c(O)c23)c(O)c1F [Compound 198] | 363 | + (^+ or *concentration of compound (I) >10 micro Molar)
2 | O=c1[nH]c2sc(Cl)c(-c3ccc(Cl)cc3)c2c(O)c1-c1ccccc1 [Compound 178] | 138 | ++ (^++ or **concentration of compound (I) ≦10 micro Molar)
3 | COc1ccc(-c2c(O)c3c(-c4ccccc4)c(C)sc3[nH]c2=O)cc1 [Compound 13] | 126 | * (^+ or *concentration of compound (I) >10 micro Molar)
4 | COc1ccc(-c2csc3[nH]c(=O)c(-c4ccccc4)c(O)c23)c(F)c1 [Compound 63] | 115 | * (^+ or *concentration of compound (I) >10 micro Molar)
5 | COc1ccc(-c2c(Cl)sc3[nH]c(=O)c(-c4ccccc4)c(O)c23)c(F)c1 [Compound 115] | 118 | ** (^++ or **concentration of compound (I) ≦10 micro Molar)
6 | CN(C)c1ccc(-c2c(O)c3c(-c4ccccc4)csc3[nH]c2=O)cc1 [Compound 22] | 121 | ** (^++ or **concentration of compound (I) ≦10 micro Molar)
7 | O=c1[nH]c2sc(Cl)c(-c3ccccc3)c2c(O)c1-c1ccc(Cl)cc1 [Compound 173] | 160 | ++ (^++ or **concentration of compound (I) ≦10 micro Molar)
8 | COc1ccc(-c2c(O)c3c(-c4ccc(F)cc4O)csc3[nH]c2=O)cc1 [Compound 191] | 187 | + (^+ or *concentration of compound (I) >10 micro Molar)
9 | O=c1[nH]c2sc(Cl)c(-c3ccccc3)c2c(O)c1-c1ccccc1F [Compound 165] | 238 | + (^+ or *concentration of compound (I) >10 micro Molar)
10 | COc1ccc(F)cc1-c1c(Cl)sc2[nH]c(=O)c(-c3ccccc3)c(O)c12 [Compound 189] | 175 | + (^+ or *concentration of compound (I) >10 micro Molar)
11 | CCOc1cccc(-c2c(Cl)sc3[nH]c(=O)c(-c4ccccc4)c(O)c23)c1 [Compound 127] | 122 | * (^+ or *concentration of compound (I) >10 micro Molar)
12 | Cc1ccc(-c2csc3[nH]c(=O)c(-c4ccc(F)cc4)c(O)c23)c(O)c1F [Compound 204] | 189 | + (^+ or *concentration of compound (I) >10 micro Molar)
13 | O=c1[nH]c2sc(Cl)c(-c3ccccc3)c2c(O)c1-c1ccsc1 [Compound 169] | 196 | ++ (^++ or **concentration of compound (I) ≦10 micro Molar)
14 | O=c1[nH]c2sc(Cl)c(-c3ccccc3)c2c(O)c1-c1cccc(C(F)(F)F)c1 [Compound 143] | 99 | * (^+ or *concentration of compound (I) >10 micro Molar)
